# Laboratory results as given in US8383888B1, “Plants and plant products useful for biofuel manufacture and feedstock, and methods of producing same” (University of Kentucky Research Foundation, priority 2008, dated 2013).
# Tests used:
# plants = settings: previous studies; cited from earlier work
# Arabidopsis ixr mutants = settings: cited from earlier work
# Arabidopsis thaliana = assay: Growth of plants on plates containing isoxaben; assay type: in vivo; settings: 2 nM isoxaben in plates
# Protocol: Studies with a plant (Arabidopsis thaliana) expressing a CESA-1 with a A903V mutation (“qxr” or “ags”) have shown significant reorganization of the mutant cell wall. Feedback between the gene mutation and cell wall structure was determined by FTIR analysis of the polysaccharide fingerprint region. The following conclusions were ascertained; firstly, the qxr mutant has aberrant root hair formation, which can be observed using light microscopy and have been described for cell wall gene deletion alleles. The highly elongated cell shape of root hairs has been used as model to define molecular players in cell elongation and a plausible explanation for the altered root hair phenotype is consistent with a defect in cell wall structure. […] Next, the inventors explored whether treating qxr mutants with the cellulose inhibitor isoxaben at minute doses induced a synergistic effect.
smiles,measurement,setting,value
"CCC(C)(CC)c1cc(NC(=O)c2c(OC)cccc2OC)on1 [isoxaben, N-(3-[1-ethyl-1-methylpropyl]-5-isoxazolyl)-2,6,dimethoxybenzamide]",lethal dose,plants,5 nM
same,resistance of mutants to the herbicide,Arabidopsis ixr mutants; ixr1-1 and ixr1-2 mutations,high level of resistance
same,drug tolerance of ixr1-1 relative to wild type,Arabidopsis ixr mutants; ixr1-1 homozygotes,approximately 300 times
same,resistance of mutants to the cellulose synthesis inhibitor,"Arabidopsis ixr mutants; ixr1-2 and ixr2-1, forward chemical genetics screen",conferring resistance
same,effect on qxr mutant plants,Arabidopsis thaliana; qxr (CESA-1 A903V),dramatically swollen organs
same,effect on wild type plants (swollen organs),Arabidopsis thaliana; wild type,did not
